The text below walks through data of PMC2362691, “A phase I study of the lipophilic thymidylate synthase inhibitor Thymitaq™ (nolatrexed dihydrochloride) given by 10-day oral administration” (British Journal of Cancer, 1999).

“And” between values parts separate entries of the source, which are not always exact repeats. Equal entries are not always repeated. Where two headings read alike, the source gives them in different places. Bounds are passed on as bounds.

The term bioavailability denotes dose-corrected exposure relative to a reference, in per cent.

In one data set the test system is thymidylate synthase. Briefly: Plasma deoxyuridine (dUrd) concentrations, pretreatment vs day 10. Type of data set: in vivo, cancer patients.
The conditions of data set [1]: in vivo.
For data set [2] the following is noted: rats fasted before treatment, introduction, no reference given, cited from earlier work.
The conditions of data set [3]: no reference given, cited from earlier work; for bioavailability of proposed clinical formulation: capsules with microcrystalline cellulose and crospovidone, dosing preceded and followed by water gavage.
On the set-up of data set [4]: method as in Rafi et al, 1996. As to conditions: patients, 5-day oral administration; ref Rafi et al, 1996; cited from earlier work.
Details of data set [5]: method as in Rafi et al, 1995. As to conditions: continuous 24-h infusion, ref Rafi et al, 1995, cited from earlier work.
For data set [6] the following is noted: cited from earlier work.
The conditions of data set [7]: cited from earlier work. This is another data set of the same source.
A short description of data set [8]: Phase I study of 10-day oral nolatrexed (6 hourly, every 21 days): toxicity by CTC grade. As to conditions: 6 hourly for 10 days, repeated at 3-weekly intervals (143 mg m-2 every 6 h).
On the set-up of data set [9]: method as in Jodrell et al, 1991. As to conditions: ref Jodrell et al, 1991; cited from earlier work.
On the set-up of data set [10]: method as in earlier work. To be noted: clinical trial, ref Calvert et al, 1986, 1987, Bassendine et al, Cantwell et al, 1988; cited from earlier work.
The mark [11] stands for this setting: 10-day intravenous infusion, 716 mg m-2 day-1, ref Creaven et al (1998).
The mark [12] stands for this setting: 5-day intravenous infusion, ref Rafi et al, 1998.

For `Cc1ccc2nc(N)[nH]c(=O)c2c1Sc1ccncc1.Cl.Cl` [nolatrexed, 2-Amino-3,4-dihydro-6-methyl-4-oxo-5-(4-pyridylthio)-quinazoline dihydrochloride], the “elevation in plasma dUrd compared with baseline” value in the data set with thymidylate synthase (429 mg m-2 day-1, in three out of four patients with data) is given as over 75%. Also, in the data set on thymidylate synthase (day 10 vs pretreatment, 12 out of 23 patients, all dose levels), the “rise of plasma dUrd concentration, median” value was 90 % of baseline. In addition, the “dose level that could be considered for phase II testing” value in data set [1] (human, 10 days) turned out to be 429 mg m-2 day-1. In data set [1] (human, po, 10 days), the “doses at which thrombocytopenia (grade 1 or 2) occurred” value was at least 318 mg m^−2day^−1. Moreover, in [1], the “additional patients with increased sensitivity to sunlight, no apparent rash” value is reported as “five”; the “patients with elevation of serum bilirubin” value is listed as “nine”; the “patients with skin rash” value is “eight”. For the same compound, where the note is “human, in vivo”, the “patients who achieved disease stabilization” value is “three”. The “patients with progressive disease on treatment” value (ten out of 23 patients had evaluable disease) is “seven”. Besides, the oral bioavailability in [2] (20 mg kg-1 (120 mg m-2)) is given as 53%. Also, in [2] (40 mg kg-1 (240 mg m-2)), the oral bioavailability was 50%. Moreover, in data set [2] (80 mg kg-1 (480 mg m-2)), the oral bioavailability is listed as 30%. The “bioavailability of proposed clinical formulation” value in data set [3] (one dog) was 70% and 107%. Further, the “bioavailability of proposed clinical formulation” value in data set [3] (second dog) is recorded as 87%. The bioavailability in data set [3] (dogs fasted overnight, in 5% dextrose by gavage, introduction) is reported as over 90%. In addition, the oral bioavailability in data set [4] is 70–100%. Further, in data set [5] (maximum dose administered 1073 mg m-2), the systemic toxicity entry is “no systemic toxicity”. The “local toxicity (phlebitis), CTC grade” value in data set [5] is 2 CTC grade. In addition, in data set [6] (setting [11]), the “patients who completed the dose level” value is reported as “zero out of three” and the “patients with grade 4 myelosuppression” value is “two out of three”. Further, the “patients with dose-limiting myelosupression” value in [6] (in vivo, iv) is on record as “one out of four”. Further, the “duration of partial response” value in data set [7] (5-day intravenous infusion, one patient with metastatic colorectal cancer, ref Rafi et al, 1998) was 3 months. In data set [7] (setting [12]), the dose-limiting toxicity entry is “neutropenia”, the maximum tolerated dose is 904 mg m-2 day-1 and the “recommended phase II dose” value is 800 mg m-2 day-1. In [7] (supported by median trough values of this study, ref Rafi et al (1998)), the clearance entry is reported as “dose dependent”. The maximum tolerated dose in data set [8] was 572 mg m-2 day-1.

In the case of `Cc1nc2ccc(CN(C)c3ccc(C(=O)N[C@@H](CCC(=O)O)C(=O)O)s3)cc2c(=O)[nH]1` [raltitrexed], the nephrotoxicity result in data set [9] is given as “non-nephrotoxic”.

As to `C#CCN(Cc1ccc2nc(N)[nH]c(=O)c2c1)c1ccc(C(=O)N[C@@H](CCC(=O)O)C(=O)O)cc1` [CB 3717, N10-propargyl-5,8-dideazafolic acid], in data set [10], the “toxicity that led to abandoned development” value was “sporadic and unpredictable nephrotoxicity and myelotoxicity”.
